In US4546084A, “Biologically pure culture of Actinomadura Sp” (Bristol-Myers Company, priority 1984, dated 1985):

Tests used:
[1] = system: Bacillus subtilis PCI 219; assay: In vitro antimicrobial activity, serial two-fold agar dilution; assay type: cell-based; settings: nutrient agar medium
Protocol: (§1) The antibacterial activity of BBM-1644 was determined by the serial two-fold agar dilution method. Nutrient agar medium was used for gram-positive and gram-negative bacteria; nutrient agar medium containing 4% glycerol for acid-fast bacteria and Sabaouraud agar medium for fungi. The activity was expressed as minimum inhibitory concentration (MIC) in the agar medium and the results are shown in Table 6 along with those of neocarzinostatin.

[2] = system: Candida albicans IAM 4888; assay: as above; assay type: cell-based; settings: Sabouraud agar medium
Protocol: as §1

[3] = system: Escherichia coli NIHJ; assay: as above; assay type: cell-based; settings: nutrient agar medium
Protocol: as §1

[4] = system: Klebsiella pneumoniae D-11; assay: as above; assay type: cell-based; settings: nutrient agar medium
Protocol: as §1

[5] = system: Micrococcus flavus D12; assay: as above; assay type: cell-based; settings: nutrient agar medium
Protocol: as §1

[6] = system: Micrococcus luteus PCI 1001; assay: as above; assay type: cell-based; settings: nutrient agar medium
Protocol: as §1

[7] = system: Mycobacterium phlei D88; assay: as above; assay type: cell-based; settings: nutrient agar medium containing 4% glycerol
Protocol: as §1

[8] = system: Mycobacterium smegmatis 607 D87; assay: as above; assay type: cell-based; settings: nutrient agar medium containing 4% glycerol
Protocol: as §1

[9] = system: Proteus vulgaris A9436; assay: as above; assay type: cell-based; settings: nutrient agar medium
Protocol: as §1

[10] = system: Pseudomonas aeruginosa A9930; assay: as above; assay type: cell-based; settings: nutrient agar medium
Protocol: as §1

[11] = system: Staphylococcus aureus FDA 209P; assay: as above; assay type: cell-based; settings: nutrient agar medium
Protocol: as §1

[12] = system: Staphylococcus aureus Smith; assay: as above; assay type: cell-based; settings: nutrient agar medium
Protocol: as §1

[13] = system: Streptococcus pyogenes A20201; assay: as above; assay type: cell-based; settings: nutrient agar medium
Protocol: as §1

[14] = system: lysogenic bacterium; assay: Induction of prophage in lysogenic bacterium (ILB); assay type: cell-based; settings: significant activity: T/C of >3.0
Protocol: The ability of BBM-1644 to induce prophage in lysogenic bacterium (ILB) was determined by the method of Lein et. al. (Nature 196: 783-784, 1962) using neocarzinostatin as a reference compound. The plaque count was made on agar plates containing test material (T) and control (C). A T/C ratio of the plaque counts of greater than 3 was considered significant and the ILB activity was expressed by the minimum inducing concentration of the test compound.

[15] = system: lymphocytic leukemia P388; assay: Antitumor activity in mice against lymphocytic leukemia P388 (Table 8); assay type: in vivo, mice (BDF1 strain); settings: ip, significant ≥125%
Protocol: The antitumor activity of BBM-1644 was determined in mice (BDF1 strain) against lymphocytic leukemia P388. Each mouse was inoculated intraperitoneally with 3×10^5 cells of the tumor. Graded doses of the antibiotic were administered to mice intraperitoneally 24 hours after tumor implantation. The treatments were given once a day on days 1, 4 and 7 (q3d ×3 schedule) or 9 consecutive days (qd 1→9 schedule).

[16] = system: P388 leukemia; assay: Effect on P388 leukemia in mice, second test (Table 9); assay type: in vivo, CDF1 female mice; settings: D.1,4&7; for Survivors Day 5: Tox <4/6 alive; for MST % T/C: ≥125 significant
Excerpt: Antitumor activity of BBM-1644 was also indicated by a second test against P388 leukemia in mice, the results of which are shown below in Table 9. Details of the methods used in this test have been described in Cancer Chemother. Rep. 3: 1-87 (Part 3), 1972.
10^6 ascites cells, ip (plus titration)
Host: CDF1 .female. mice.
Tox: <4/6 mice alive on Day 5.
MST = median survival time.
Effect: % T/C = (MST treated/MST control) × 100.
Criteria: % T/C ≥ 125 considered significant antitumor

## Neocarzinostatin
[1]
  MIC: 3.1 µg/mL
[2]
  MIC: > 100 µg/mL
[3]
  MIC: > 100 µg/mL
[4]
  MIC: > 100 µg/mL
[5]
  MIC: 1.6 µg/mL
[6]
  MIC: 1.6 µg/mL
[7]
  MIC: 12.5 µg/mL
[8]
  MIC: 50 µg/mL
[9]
  MIC: > 100 µg/mL
[10]
  MIC: > 100 µg/mL
[11]
  MIC: 1.6 µg/mL
[12]
  MIC: 0.8 µg/mL
[13]
  MIC: 3.1 µg/mL
[14]; 0.1 mcg/ml
  ILB activity (T/C): 0.7
[14]; 1 mcg/ml
  ILB activity (T/C): 10.8
[14]; 10 mcg/ml
  ILB activity (T/C): 20.4
[14]; 100 mcg/ml
  ILB activity (T/C): 28.6
[15]; 0.01 mg/kg/day, gd 1→9
  T/C (%) in MST: 113%
[15]; 0.03 mg/kg/day, gd 1→9
  T/C (%) in MST: 125%
[15]; 0.03 mg/kg/day, q3d × 3
  T/C (%) in MST: 113%
[15]; 0.1 mg/kg/day, gd 1→9
  T/C (%) in MST: 138%
[15]; 0.1 mg/kg/day, q3d × 3
  T/C (%) in MST: 125%
[15]; 0.3 mg/kg/day, gd 1→9
  T/C (%) in MST: 163%
[15]; 0.3 mg/kg/day, q3d × 3
  T/C (%) in MST: 150%
[15]; 1 mg/kg/day, q3d × 3
  T/C (%) in MST: 163%
[16]; 0.05 mg/kg/inj IP
  AWC d.6: -1.7 gm
  MST: 12.0 days
  Survivors Day 5: 6/6
  MST % T/C: 133%
[16]; 0.1 mg/kg/inj IP
  AWC d.6: -1.2 gm
  MST: 13.5 days
  Survivors Day 5: 6/6
  MST % T/C: 150%
[16]; 0.2 mg/kg/inj IP
  AWC d.6: -2.5 gm
  MST: 15.0 days
  Survivors Day 5: 6/6
  MST % T/C: 167%
[16]; 0.4 mg/kg/inj IP
  AWC d.6: -3.2 gm
  MST: 15.5 days
  Survivors Day 5: 6/6
  MST % T/C: 172%
[16]; 0.8 mg/kg/inj IP
  AWC d.6: -4.3 gm
  MST: 10.5 days
  Survivors Day 5: 6/6
  MST % T/C: 117%
[16]; 1.6 mg/kg/inj IP
  AWC d.6: -4.8 gm
  MST: 8.0 days
  Survivors Day 5: 6/6
  MST % T/C: 89%
